The values that follow come from publication PMC11110238, “Synthesis of novel carbazole hydrazine-carbothioamide scaffold as potent antioxidant, anticancer and antimicrobial agents” (BMC Chemistry, 2024).

Structures are written as SMILES. In brackets after ≈: the same amount, converted by molar mass.

By MIC is commonly meant the lowest concentration that inhibits growth of the organism. A word on the IC50: it is the concentration at which inhibition is half-maximal.

One data set deals with Candida albicans. The data set can be described thus: MIC and MBC test, C. albicans. It is filed as cell-based. The procedure:
(§1) Using Muller Hinton agar medium, the antibacterial activity was evaluated by using 24 h cultures of Escherichia coli, Staphylococcus aureus, and Candida albicans. E. coli and S. aureus were incubated in 1% Mueller Hinton Broth (MHB) liquid medium at 37 °C for 24 h; C. albicans was incubated in Sabouraud Dextrose Broth (SDB) at 30 °C for 48 h. MIC (Minimum Inhibitory Concentration) and MBC (Minimum Bactericidal Concentration) tests were performed to determine antimicrobial activity. This stage was carried out in a sterile cabinet.
(§2) The density of microorganisms in fresh cultures was adjusted according to the MacFarland 0.5 scale. For that, the microorganisms were centrifuged at 4000 rpm for 20 min. The supernatant was poured off, and the pellet was washed with 1 mL of 0.9% NaCl solution (physiological saline). The centrifugation was then repeated. The pellet was dissolved again with saline solution and adjusted to 0.5 MacFarland. In the experiment performed in a sterile 96-well plate, compound 4o was diluted ½ with DMSO to prepare a stock solution. In the first, 100 µl of medium and 100 µl of compound 4o as initial dilutions. Dilution was performed seven times at a ratio of ½. Then, 5 µl of fresh microorganism cultures prepared as MacFarland 0.5 were inoculated. The control group was prepared as 100 µl medium, 100 µl distilled water, and 5 µl microorganisms. The plates were incubated at 37 °C and 30 °C for 24 h.
(§3) After incubation, 10 µl of the sample was taken, dropped onto the respective media, and incubated for 24 h at appropriate temperatures to clearly distinguish the residues left by the compound 4o and the growth of microorganisms. Mueller Hinton Agar (MHA) was used for E. coli and S. aureus, and Potato Dextrose Agar (PDA) was used for C. albicans. After incubation, MIC and MBC values were determined. The first well with a significant decrease in growth was considered as MIC, and the first well with no growth was considered as MBC [59, 60].

A further data set relates to Staphylococcus aureus. The experiment in a line: MIC and MBC test, S. aureus. It is filed as cell-based. The note with it: Staphylococcus aureus. How it is done:
as §1, §2, §3

Data set [1] is described as follows: DPPH radical scavenging assay. Type of data set: biochemical. The note with it: 30 min, 517 nm. How it is done: To estimate the Carbazole derivatives' antioxidant potential, a solution of each compound (1 mM/mL) in methanol was serially diluted with methanol to obtain a concentration of 1, 2, 5, 10, 20, 50, and 100 µM/mL. Then, DPPH (2,2-diphenyl-1-picrylhydrazyl) reagent (Sigma, USA) was dissolved in 0.002% w/v methanol and mixed with the previously prepared working concentrations in a 1:1 ratio. The same procedures were repeated for Trolox (Sigma-Aldrich, Denmark), which was used as a positive control. All of the solutions were kept in the dark chamber for 30 min at an ordinary temperature. Then, their absorbance values were measured at a wavelength of 517 nm utilizing a UV–visible spectrophotometer. The DPPH inhibition potentials by Carbazole derivatives and Trolox were determined employing the following equation: DPPH inhibition(\%)=abs(blank)-abs(sample)/abs(blank)∗100\% where absblank is the blank absorbance and abssample is the absorbance of the samples [58]. The antioxidant half-maximal inhibitory concentration (IC50) of the synthesized carbazole derivatives and Trolox were assessed by using an online tool “Quest Graph™ IC50 Calculator.” AAT Bioquest, Inc., 25 May. 2023, https://www.aatbio.com/tools/ic50-calculator.
In general terms: The DPPH test is a chemical assay of radical scavenging.

A further data set has as its system MCF-7 cell line. The data set can be described thus: MTT cell viability, MCF-7 cancer cell line. Type of data set: cell-based. How it is done: MCF-7 cancer cell lines were cultured at Dulbecco’s Modified Eagle Medium High Glucose (DMEM) (EuroClone, Via Figino, Italy); fetal bovine serum (FBS) and MTT (3-(4,5-Dimethylthiazol-2-yl)-2,5-Diphenyl Tetrazolium Bromide) were provided by Sigma-Aldrich (Darmstadt, Germany); ApopNexin Annexin-V-FITC with PI Apoptosis Kit was obtained from Merck (Darmstadt, Germany); Total RNA Isolation Kit was provided by Analytic Jena (Jena, Germany), SensiFast cDNA Synthesis Kit was provided by Meridian Bioscience (Cincinati, USA), SybrGreen Master Mix was obtained from EuroClone (Via Figino, Italy).
(§4) Cells (MCF-7 and L929) were incubated in 75 cm^2 sterile flasks with 10% FBS, 100 U/mL penicillin, and 100 µg/mL streptomycin. The cells were grown at 37 ^○C in 5% CO2, and MTT was used to screen the viability of the cells. Cells were seeded at a density of 10^4 cells per well. The cells were then cultured for 24 h in 100 µl of DMEM complete medium. After pretreatment with different concentrations of the compounds for 48 h, 10 µl of 5 mg/mL MTT solution was added to each well and incubated for 4 h at 37 ^○C, and 100 µl of DMSO was used in each well to dissolve the blue formazan crystals. Then, the absorbance was measured at 570 nm. The cell viability percentages of compound 4o against MCF-7 cancer cell lines and L929 normal cell lines were presented in Fig. 2 in comparison with doxorubicin anticancer agent.

Data set [2] has as its system MCF-7 cells. The experiment in a line: Annexin-V-FITC/PI apoptosis assay by flow cytometry. Type of data set: cell-based. The procedure:
FITC Annexin-V apoptosis detection kit with PI, ApopNexinTM FITC (APT750, Merk, Germany) was used for apoptosis assay. MCF-7 cells were seeded into a 6-well plate (1 × 10^6 cells per well). Then, the cells were incubated with the compounds at the cytotoxic concentration by employing a cell viability assay. Apoptotic cells were cultured with the compounds, the medium was removed after incubation, and the cells were washed twice with 5 mL of pre-chilled phosphate-buffered saline. Cells washed with PBS were lifted with Trypsin–EDTA and centrifuged at 400 rpm for 5 min. The resulting cells were each treated with 1 mL of cold 1-X Binding Buffer (Sigma Aldrich, USA). Then, 200 μL of the mixture was taken and placed in a flow cytometry tube, and the other part containing cells was kept on ice. First, 3 µl of ApopNexinTM FITC and 2 µl of 100X propidium iodide (PI) (P4170, Sigma Aldrich, USA) were added to the solution taken into the sample tube and mixed. The resulting mixture was incubated for 15 min in the dark at room temperature. At the end of the incubation, the samples were measured in flow cytometry (Beckman Coulter Cytoflex) and data were obtained.
(A flow cytometer gives signals particle by particle.)

Another data set relates to Escherichia coli. The experiment in a line: MIC and MBC test, E. coli. Type of data set: cell-based. As to conditions: Escherichia coli. The procedure:
as §1, §2, §3

Data set [3] concerns MCF-7 cells. The experiment in a line: Cell cycle analysis by flow cytometry. It is filed as cell-based. From the text:
The manufacturer protocol (Sigma-Aldrich Mak344 Cell Cycle Analysis Kit) was used to perform cell cycle experiments and analyzed by flow cytometry (Beckman Coulter Cytoflex).

In another data set the test system is L929 normal cell lines. The experiment in a line: MTT cell viability, L929 normal cell line. Type of data set: cell-based. The note with it: Mus musculus, 48 h. The procedure:
as §4

Regarding `O=C(Cn1c2ccccc2c2ccccc21)NNC(=S)NC(=O)c1ccccc1` [Compound 4o, N-(2-(2-(9H-carbazol-9-yl)acetyl)hydrazine-1-carbonothioyl)benzamide], the MBC was found to be 0.39 µM (≈ 0.157 µg/mL) in the data set on Candida albicans, 1.56 µM (≈ 0.628 µg/mL) with Staphylococcus aureus (read-out: MBC) and 1.56 µM (≈ 0.628 µg/mL) in the data set with Escherichia coli (read-out: MBC). Moreover, the MIC was 0.39 µM (≈ 0.157 µg/mL) in the data set with Candida albicans, 1.56 µM (≈ 0.628 µg/mL) in the data set on Staphylococcus aureus and 1.56 µM (≈ 0.628 µg/mL) in the data set on Escherichia coli (read-out: MIC). Moreover, the IC50 in data set [1] was 158 ± 2.54 µM; with MCF-7 cell line (Homo sapiens, MCF7, MTT, 48 h, read-out: IC50 values Carbazole Derivatives Effect on MCF-7 Cell Line), 2.02 ± 0.04 µM; with L929 normal cell lines, 37.8 µM. Also, the “selective index (SI)” value in the data set with MCF-7 cell line (L929 vs MCF-7) turned out to be 18.70. The induction of apoptosis entry in the data set on MCF-7 cells [2] (MCF-7) is on record as “drives MCF-7 cells to apoptosis”. In the data set on MCF-7 cells [2] (MCF-7, cytotoxic concentration), this molecule had a necrosis cell population of 3.69%. In addition, the post-apoptotic cell population with MCF-7 cells [2] (MCF-7, cytotoxic concentration) stood at 4.33%. Besides, the pre-apoptotic cell population in the data set on MCF-7 cells [2] (MCF-7, cytotoxic concentration) was determined as 8.20%. In the data set with MCF-7 cells [2] (MCF-7, cytotoxic concentration), this molecule showed a viable cell population of 83.78%. The molecule also registered a total dead cells with MCF-7 cells [2] (MCF-7, sum of pre-apoptotic, post-apoptotic and necrosis) of 16.22%. In addition, in the data set with MCF-7 cells [3], the cell cycle arrest result is “cell cycle arrest in the MCF-7 cell line in the G2/M phase”.
